Data from patent US20230087140A1, “TREATMENT OF PAIN ASSOCIATED WITH CESAREAN SECTION SURGERY WITH SUSTAINED-RELEASE LIPOSOMAL ANESTHETIC COMPOSITIONS” (Pacira Pharmaceuticals, Inc., priority 2020, published 2023).
Where a name gives a salt, the structure may show the parent alone.

How the values were obtained:
[1] = cited from earlier work
[2] = tested on: patients undergoing elective cesarean delivery; experiment: Randomized double-blind clinical trial, efficacy of TAP block after cesarean delivery (opioid consumption, VAS pain); assay type: in vivo, human; details: mITT
[3] = tested on: patients undergoing elective cesarean delivery; experiment: Clinical trial safety: treatment-emergent adverse events through day 14 (safety analysis set)
[4] = TEAEs occurring in >5% of patients in either group
[5] = safety analysis set, through day 14
[6] = treatment-relatedness determined by the investigator

CCCCN1CCCCC1C(=O)Nc1c(C)cccc1C (centres unmarked) [BUPI HCl alone, bupivacaine hydrochloride]
expected duration of action in spinal anesthesia ([1]; 1.4 to 1.6 mL hyperbaric BUPI HCl 0.75%, spinal): ~2 h | duration of analgesia ([1]; standard local anesthetics, TAP block background): 5 to 8 h | percentage of opioid-free patients at 24 hours ([2]; 24 hours): 93.7% | percentage of opioid-free patients at 48 hours ([2]; 48 hours): 50.6% | percentage of opioid-free patients at 72 hours ([2]; 72 hours): 48.6% | percentage of opioid-spared patients at 72 hours ([2]; 72 hours): 24.7% | median time to first opioid rescue ([2]; median): 41.1 h | LSM (SE) AUC0-72 of VAS pain intensity scores through 72 hours ([2]; through 72 hours, hydrochloride): 178.5 (19.78) | TEAE: Back pain [3, 4]: 5 (5.6) number (percentage) | TEAE: Constipation [3, 4]: 4 (4.5) number (percentage) | TEAE: Dizziness [3, 4]: 5 (5.6) number (percentage) | TEAE: Headache [3, 4]: 10 (11.2) number (percentage) | TEAE: Nausea [3, 4]: 11 (12.4) number (percentage) | TEAE: Pruritus [3, 4]: 28 (31.5) number (percentage) | TEAE: Rash [3, 4]: 3 (3.4) number (percentage) | TEAE: Vomiting [3, 4]: 6 (6.7) number (percentage) | Any TEAE [3, 5]: 50 (56.2) number (percentage) | Any treatment-related TEAE [3, 5]: 9 (10.1) number (percentage) | Fatal TEAE [3, 5]: 0 (0.0) number (percentage) | Serious TEAE [3, 5]: 3 (3.4) number (percentage) | Serious TEAEs ([3]; summary of results): ~3% | fatal TEAEs ([3]; summary of results): no fatal TEAEs | patients who experienced a TEAE ([3]; summary of results): 56.2% | Treatment-related TEAE: Back pain [3, 6]: 1 (1.1) number (percentage) | Treatment-related TEAE: Dizziness [3, 6]: 0 (0.0) number (percentage) | Treatment-related TEAE: Dysuria [3, 6]: 1 (1.1) number (percentage) | Treatment-related TEAE: Nausea [3, 6]: 0 (0.0) number (percentage) | Treatment-related TEAE: Pruritus [3, 6]: 8 (9.0) number (percentage) | Treatment-related TEAE: Vomiting [3, 6]: 0 (0.0) number (percentage)
